Our source for the IC50 values is patent publication US20230348442A1, “GALECTIN-3 INHIBITING 2-HYDROXYCYCLOALKANE-1-CARBAMOYL DERIVATIVES” (Idorsia Pharmaceuticals Ltd, priority 2020, published 2023).

The assay deals with human Gal-3 (hGal-3) (Homo sapiens (Human), UniProt P17931). As to the kind of experiment: competitive binding assay: binding of biotinylated hGal-3 to microplate-adsorbed asialofetuin (ASF), spectrophotometric. As to conditions: Activity on hGal-3; mean values of several measurements. As to the method: Evaluation of Compound Inhibitory Activity (IC50)
human Gal-3 (hGal-3), sequence (P17931 whole entry): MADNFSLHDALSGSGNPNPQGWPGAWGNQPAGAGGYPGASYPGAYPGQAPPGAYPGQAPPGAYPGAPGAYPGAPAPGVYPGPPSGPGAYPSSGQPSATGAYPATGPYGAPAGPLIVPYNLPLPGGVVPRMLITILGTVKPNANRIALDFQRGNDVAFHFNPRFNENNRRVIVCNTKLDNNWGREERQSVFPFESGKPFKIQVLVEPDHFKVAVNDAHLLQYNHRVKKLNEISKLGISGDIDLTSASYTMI
The inhibitory activity of compounds is determined in competitive binding assays. This spectrophotometric assay measures the binding of biotinylated human Gal-3 (hGal-3) or human Gal-1 (hGal-1), respectively, to a microplate-adsorbed glycoprotein, asialofetuin (ASF) (Proc Natl Acad Sci USA. 2013 Mar. 26; 110(13):5052-7.). Alternatively, and preferably, a human Gal-1 version in which all six cysteines are substituted by serines may be used.
Briefly, compounds are serially diluted in DMSO (working dilutions). ASF-coated 384 well plates are supplemented with 22.8 μL/well of biotinylated hGal-3 or hGal-1 in assay buffer (i.e. 300-1000 ng/mL biotinylated hGal-3 or hGal-1) to which 1.2 μL of compound working dilutions are added and mixed.
Plates are incubated for 3 hours at 4° C., then washed with cold assay buffer (3×50 uL), incubated for 1 hour with 25 μL/well of a streptavidin-peroxidase solution (diluted in assay buffer to 80 ng/mL) at 4° C., followed by further washing steps with assay buffer (3×50 uL). Finally, 25 μL/well of ABTS substrate is added.
The calculated IC50 values may fluctuate depending on the daily assay performance. Fluctuations of this kind are known to those skilled in the art. IC50 values from several measurements are given as mean values.
The term IC50 denotes the concentration that inhibits the measured activity by half. Read a low IC50 as greater potency in that assay. `COc1cc(-c2cn([C@H]3[C@@H](O)[C@@H](CO)O[C@@H](C(=O)N(c4cc(C)cc(Br)c4)[C@H]4CC[C@@H]4O)[C@@H]3OC)nn2)cc(F)c1F` [Example 2.3.12, (2R,3R,4S,5R,6R)-N-(3-bromo-5-methylphenyl)-4-(4-(3,4-difluoro-5-methoxyphenyl)-1H-1,2,3-triazol-1-yl)-5-hydroxy-N-((1S,2S)-2-hydroxycyclobutyl)-6-(hydroxymethyl)-3-methoxytetrahydro-2H-pyran-2-carboxamide] showed an IC50 of 116 nM.

On to `CO[C@@H]1[C@@H](n2cc(-c3ccc(Br)c(F)c3F)nn2)[C@@H](O)[C@@H](CO)O[C@H]1C(=O)N(c1cc(Cl)cc(Cl)c1)[C@@H]1CC[C@H]1O` [Example 2.12.2R, (2R,3R,4S,5R,6R)-4-(4-(4-bromo-2,3-difluorophenyl)-1H-1,2,3-triazol-1-yl)-N-(3,5-dichlorophenyl)-5-hydroxy-N-((1R,2R)-2-hydroxycyclobutyl)-6-(hydroxymethyl)-3-methoxytetrahydro-2H-pyran-2-carboxamide], for which the IC50 is 100 nM.

`N#Cc1cc(Cl)cc(N(C(=O)[C@@H]2O[C@H](CO)[C@H](O)[C@H](n3cc(-c4cc(F)c(F)c(F)c4)nn3)[C@H]2O)[C@H]2CCC[C@@H]2O)c1` [Example 1H.1.4, (2R,3R,4S,5R,6R)-N-(3-chloro-5-cyanophenyl)-3,5-dihydroxy-N-((1S,2S)-2-hydroxycyclopentyl)-6-(hydroxymethyl)-4-(4-(3,4,5-trifluorophenyl)-1H-1,2,3-triazol-1-yl)tetrahydro-2H-pyran-2-carboxamide] returned an IC50 of 28.9 nM.

As to `CO[C@@H]1[C@@H](n2cc(-c3cc(F)c(F)c(F)c3)nn2)[C@@H](O)[C@@H](CO)O[C@H]1C(=O)N(c1cc(Cl)cc(C#N)c1)[C@H]1CCC[C@@H]1O` [Example 1.1.4, (2R,3R,4S,5R,6R)-N-(3-chloro-5-cyanophenyl)-5-hydroxy-N-((1S,2S)-2-hydroxycyclopentyl)-6-(hydroxymethyl)-3-methoxy-4-(4-(3,4,5-trifluorophenyl)-1H-1,2,3-triazol-1-yl)tetrahydro-2H-pyran-2-carboxamide], the IC50 stood at 27.3 nM.

For the compound `CO[C@@H]1[C@@H](n2cc(-c3ccc(Cl)c(Cl)c3)nn2)[C@@H](O)[C@@H](CO)O[C@H]1C(=O)N(c1cc(Cl)cc(C#N)c1)[C@H]1CCC[C@@H]1O` [Example 1.8.4, (2R,3R,4S,5R,6R)-N-(3-chloro-5-cyanophenyl)-4-(4-(3,4-dichlorophenyl)-1H-1,2,3-triazol-1-yl)-5-hydroxy-N-((1S,2S)-2-hydroxycyclopentyl)-6-(hydroxymethyl)-3-methoxytetrahydro-2H-pyran-2-carboxamide], the IC50 is 75.9 nM.

Take `CO[C@@H]1[C@@H](n2cc(-c3cc(F)c(F)c(Cl)c3)nn2)[C@@H](O)[C@@H](CO)O[C@H]1C(=O)N(c1cc(Cl)cc(C#N)c1)[C@H]1CC[C@@H]1O` [Example 2.7.4, (2R,3R,4S,5R,6R)-4-(4-(3-chloro-4,5-difluorophenyl)-1H-1,2,3-triazol-1-yl)-N-(3-chloro-5-cyanophenyl)-5-hydroxy-N-((1S,2S)-2-hydroxycyclobutyl)-6-(hydroxymethyl)-3-methoxytetrahydro-2H-pyran-2-carboxamide]: the 50% inhibitory concentration (IC50) worked out at 78.6 nM.

The compound `CO[C@@H]1[C@@H](n2cc(-c3cc(F)c(F)c(F)c3)nn2)[C@@H](O)[C@@H](CO)O[C@H]1C(=O)N(c1cccc(Cl)c1)[C@@H]1CC[C@H]1O` [Example 2.1.1R, (2R,3R,4S,5R,6R)-N-(3-chlorophenyl)-5-hydroxy-N-((1R,2R)-2-hydroxycyclobutyl)-6-(hydroxymethyl)-3-methoxy-4-(4-(3,4,5-trifluorophenyl)-1H-1,2,3-triazol-1-yl)tetrahydro-2H-pyran-2-carboxamide] displayed an IC50 of 4400 nM.

Regarding `CO[C@@H]1[C@@H](n2cc(-c3cc(F)c(F)c(F)c3)nn2)[C@@H](O)[C@@H](CO)O[C@H]1C(=O)N(c1cccc(Cl)c1)[C@H]1CCC[C@@H]1O` [Example 1.1.1, (2R,3R,4S,5R,6R)—N-(3-chlorophenyl)-5-hydroxy-N-((1S,2S)-2-hydroxycyclopentyl)-6-(hydroxymethyl)-3-methoxy-4-(4-(3,4,5-trifluorophenyl)-1H-1,2,3-triazol-1-yl)tetrahydro-2H-pyran-2-carboxamide], the IC50 was 36.5 nM.

With `CO[C@@H]1[C@@H](n2cc(-c3cc(F)c(F)c(F)c3)nn2)[C@@H](O)[C@@H](CO)O[C@H]1C(=O)N(c1cc(Br)cc(C#N)c1)[C@H]1CC[C@@H]1O` [Example 2.1.5, (2R,3R,4S,5R,6R)-N-(3-bromo-5-cyanophenyl)-5-hydroxy-N-((1S,2S)-2-hydroxycyclobutyl)-6-(hydroxymethyl)-3-methoxy-4-(4-(3,4,5-trifluorophenyl)-1H-1,2,3-triazol-1-yl)tetrahydro-2H-pyran-2-carboxamide], the IC50 worked out at 44.5 nM.

As for `N#Cc1cc(Cl)cc(N(C(=O)[C@@H]2O[C@H](CO)[C@H](O)[C@H](n3cc(-c4cc(F)c(F)c(F)c4)nn3)[C@H]2O)[C@H]2CC[C@@H]2O)c1` [Example 2H.1.4, (2R,3R,4S,5R,6R)-N-(3-chloro-5-cyanophenyl)-3,5-dihydroxy-N-((1S,2S)-2-hydroxycyclobutyl)-6-(hydroxymethyl)-4-(4-(3,4,5-trifluorophenyl)-1H-1,2,3-triazol-1-yl)tetrahydro-2H-pyran-2-carboxamide], the IC50 came out at 33.8 nM.

Consider `COc1cc(C#N)cc(N(C(=O)[C@@H]2O[C@H](CO)[C@H](O)[C@H](n3cc(-c4ccc(C#N)c(F)c4)nn3)[C@H]2OC)[C@H]2CCC[C@@H]2O)c1` [Example 1.16.9, (2R,3R,4S,5R,6R)-4-(4-(4-cyano-3-fluorophenyl)-1H-1,2,3-triazol-1-yl)-N-(3-cyano-5-methoxyphenyl)-5-hydroxy-N-((1S,2S)-2-hydroxycyclopentyl)-6-(hydroxymethyl)-3-methoxytetrahydro-2H-pyran-2-carboxamide], for which the 50% inhibitory concentration (IC50) was 256 nM.

`CO[C@@H]1[C@@H](n2cc(-c3cc(F)cc(F)c3)nn2)[C@@H](O)[C@@H](CO)O[C@H]1C(=O)N(c1cc(Br)cc(C#N)c1)[C@@H]1CCC[C@H]1O` [Example 1.2.5R, (2R,3R,4S,5R,6R)-N-(3-bromo-5-cyanophenyl)-4-(4-(3,5-difluorophenyl)-1H-1,2,3-triazol-1-yl)-5-hydroxy-N-((1R,2R)-2-hydroxycyclopentyl)-6-(hydroxymethyl)-3-methoxytetrahydro-2H-pyran-2-carboxamide] showed a 50% inhibitory concentration (IC50) of 450 nM.

The compound `COc1cc(-c2cn([C@H]3[C@@H](O)[C@@H](CO)O[C@@H](C(=O)N(c4cc(C)cc(Br)c4)[C@@H]4CCC[C@H]4O)[C@@H]3OC)nn2)cc(F)c1F` [Example 1.3.12R, (2R,3R,4S,5R,6R)-N-(3-bromo-5-methylphenyl)-4-(4-(3,4-difluoro-5-methoxyphenyl)-1H-1,2,3-triazol-1-yl)-5-hydroxy-N-((1R,2R)-2-hydroxycyclopentyl)-6-(hydroxymethyl)-3-methoxytetrahydro-2H-pyran-2-carboxamide] gave an IC50 of 411 nM.

In turn, `CO[C@@H]1[C@@H](n2cc(-c3cc(F)c(F)c(Cl)c3)nn2)[C@@H](O)[C@@H](CO)O[C@H]1C(=O)N(c1cc(Br)cc(C#N)c1)[C@H]1CC[C@@H]1O` [Example 2.7.5, (2R,3R,4S,5R,6R)-N-(3-bromo-5-cyanophenyl)-4-(4-(3-chloro-4,5-difluorophenyl)-1H-1,2,3-triazol-1-yl)-5-hydroxy-N-((1S,2S)-2-hydroxycyclobutyl)-6-(hydroxymethyl)-3-methoxytetrahydro-2H-pyran-2-carboxamide] returned a half-inhibitory concentration (IC50) of 80.3 nM.
